Consider 57 compounds from the PolyMetriX glass transition set.

Structures are written as SMILES.

As for `*C(=O)NCC(C)(C)CNC(=O)c1ncn(C)c1*` (repeat unit), the glass transition temperature was determined as 152.00 °C. For `*C(=O)c1ccc(C(=O)N(*)c2ccccc2)cc1` (repeat unit) the value was 179.00 °C. Regarding `*C(=O)c1cccc(C(=O)N2CCN(*)CC2)c1` (repeat unit), the glass transition temperature was found to be 214.50 °C. Take `*C(=O)c1ccccc1-c1ccccc1C(=O)N1CCN(*)CC1` (repeat unit): the glass transition temperature worked out at 193.00 °C. Compound `*CC(*)c1cc(C)c(C)cc1C` (repeat unit) registered a glass transition temperature of 104.00 °C.

Turning to `*CC(*)c1cc(OC)c(O)c(OC)c1` (repeat unit), the glass transition temperature is 147.00 °C. In turn, `*CC(*)c1ccc(-c2ccc3c(c2)C(CCCCCC)(CCCCCC)c2cc(-c4ccc5c(c4)C(CCCCCC)(CCCCCC)c4ccccc4-5)ccc2-3)cc1` (repeat unit) showed a glass transition temperature of 78.60 °C.

`*CC(*)c1ccc(-c2ccc3c(c2)C(CCCCCC)(CCCCCC)c2ccccc2-3)cc1` (repeat unit): the glass transition temperature was found to be 81.2 °C.

`*CC(*)c1ccc(B(O[Si](C)(C)C)O[Si](C)(C)C)cc1` (repeat unit) yielded a glass transition temperature of 84.00 °C.

In turn, `*CC(*)c1ccc(B(Oc2ccc(B3OC(C)(C)C(C)(C)O3)c3cccnc23)c2ccc(C(C)(C)C)cc2)cc1` (repeat unit) had a glass transition temperature of 275.00 °C. On to `*CC(*)c1ccc(C#N)cc1` (repeat unit), for which the glass transition temperature was 180.00 °C.

`*CC(*)c1ccc(C(=O)CCC)cc1` (repeat unit) displayed a glass transition temperature of 74.00 °C. As for `*CC(*)c1ccc(C(=O)CCCCC)cc1` (repeat unit), the glass transition temperature is 66.00 °C. For `*CC(*)c1ccc(C(=O)CCN2CCOCC2)cc1` (repeat unit) the value was 41.00 °C; for `*CC(*)c1ccc(C(=O)N(CC)CC)cc1` (repeat unit), 102.00 °C. The compound `*CC(*)c1ccc(C(=O)N2CCOCC2)cc1` (repeat unit) displayed a glass transition temperature of 127.00 °C. For `*CC(*)c1ccc(C(=O)OCCN(C)C)cc1` (repeat unit) the value was 91.00 °C; for `*CC(*)c1ccc(C(C)(O)CC)cc1` (repeat unit), 190.00 °C.

`*CC(*)c1ccc(C(C)(O)CCCCC)cc1` (repeat unit) returned a glass transition temperature of 100.00 °C. The compound `*CC(*)c1ccc(C(F)(F)C(F)(F)C(F)(F)C(F)(F)C(F)(F)C(F)(F)C(F)(F)F)cc1` (repeat unit) had a glass transition temperature of 42.00 °C. `*CC(*)c1ccc(C(O)CCN2CCOCC2)cc1` (repeat unit) had a glass transition temperature of 50.00 °C. `*CC(*)c1ccc([CH]([Sn]([CH3])([CH3])[CH3])[Sn]([CH3])([CH3])[CH3])cc1` (repeat unit): the glass transition temperature was found to be 140.00 °C. Regarding `*CC(*)c1ccc(CCC(F)(F)C(F)(F)C(F)(F)C(F)(F)F)cc1` (repeat unit), the glass transition temperature was 23.00 °C. For the compound `*CC(*)c1ccc(CCCCCCCCCCCCCC)cc1` (repeat unit), the glass transition temperature is -36.00 °C.

For `*CC(*)c1ccc(CCCCCCCCCCCCCCCC)cc1` (repeat unit), the glass transition temperature is 4.50 °C. Consider `*CC(*)c1ccc(COC(C)CC)cc1` (repeat unit), for which the glass transition temperature worked out at 40.00 °C.

Compound `*CC(*)c1ccc(COCCC(F)(F)C(F)(F)C(F)(F)C(F)(F)C(F)(F)C(F)(F)C(F)(F)C(F)(F)F)cc1` (repeat unit) had a glass transition temperature of 55.00 °C.

The compound `*CC(*)c1ccc(COCCCCO)cc1` (repeat unit) came in with a glass transition temperature of 20.00 °C. As to `*CC(*)c1ccc(Cl)c(Cl)c1` (repeat unit), the glass transition temperature is 128.00 °C. `*CC(*)c1ccc(Cn2c3ccccc3c3ccccc32)cc1` (repeat unit) returned a glass transition temperature of 166.00 °C.

For the compound `*CC(*)c1ccc(N(c2ccccc2)c2ccccc2)cc1` (repeat unit), the glass transition temperature amounted to 123.50 °C.

Regarding `*CC(*)c1ccc(OC(C)=O)c(OC)c1` (repeat unit), the glass transition temperature was 115.00 °C. For `*CC(*)c1ccc(OCCC(C)C)cc1` (repeat unit) the value was 57.00 °C; for `*CC(*)c1ccc(OP2(OCCOCCOCCOC)=NP(OCCOCCOCCOC)(OCCOCCOCCOC)=NP(OCCOCCOCCOC)(OCCOCCOCCOC)=N2)cc1` (repeat unit), -46.00 °C. `*CC(*)c1ccc([Si](C)(C)O)cc1` (repeat unit) registered a glass transition temperature of 147.00 °C. With `*CC(*)c1ccc([Si](C)(C)O[Si](C)(C)C)cc1` (repeat unit), the glass transition temperature amounted to 35.50 °C. For `*CC(*)c1ccc([Si](O[Si](C)(C)C)(O[Si](C)(C)C)O[Si](C)(C)C)cc1` (repeat unit) the value was 114.00 °C; for `*CC(*)c1cccc(NC(C)=O)c1` (repeat unit), 163.00 °C; for `*CC(*)c1ccccc1Br` (repeat unit), 149.00 °C. In turn, `*CC(*)c1ccccc1C` (repeat unit) yielded a glass transition temperature of 131.00 °C. Take `*CC(*)c1ccccc1C(=O)NC` (repeat unit): the glass transition temperature came out at 189.00 °C. To `*CC(*)c1ccccc1C(=O)OCCCCC` (repeat unit) belongs 92.00 °C; to `*CC(*)c1ccccc1C(F)(F)F` (repeat unit), 165.00 °C; to `*CC(*)c1ccccc1COC` (repeat unit), 89.00 °C. As to `*CC(*)c1ccccc1COCCC` (repeat unit), the glass transition temperature stood at 97.00 °C. Regarding `*CC(*)c1ccccc1COCCCCCCCC` (repeat unit), the glass transition temperature was 13.00 °C. For `*CC(*)c1ccccc1F` (repeat unit), the glass transition temperature came to 160.50 °C.

The compound `*CC(*)c1ccccc1O` (repeat unit) showed a glass transition temperature of 172.00 °C. As for `*CC(*)c1nnn[nH]1` (repeat unit), the glass transition temperature stood at 72.00 °C. As for `*CC(*)n1c2ccccc2c2c3ccccc3ccc21` (repeat unit), the glass transition temperature came out at 291.50 °C.

Compound `*CC(*)n1ccc2ccccc21` (repeat unit) displayed a glass transition temperature of 19.00 °C. As for `*CC(c1ccccc1)C1C(=O)N(C)C(=O)C1*` (repeat unit), the glass transition temperature was 205.00 °C. For `*CC(c1ccccc1)C1C(=O)N(CCCCCCCCCCCC)C(=O)C1*` (repeat unit) the value was 70.00 °C; for `*CC(c1ccccc1)C1C(=O)N(CCN(CC)c2ccc(/N=N/c3ccc([N+](=O)[O-])cc3)cc2)C(=O)C1*` (repeat unit), 172.00 °C; for `*CCCCCCCCCNC(=O)C(OC)C(OC)C(=O)N*` (repeat unit), 84.00 °C.

For the compound `*CCCCCCOc1ccc(C(=O)N(C(=O)c2ccc(O*)cc2)c2cccc3ccccc23)cc1` (repeat unit), the glass transition temperature is 56.00 °C. For `*CCCCCCOc1ccc(C(=O)N(C(=O)c2ccc(O*)cc2)c2ccccc2)cc1` (repeat unit) the value was 100.00 °C.
